Values after ≈ are worked out from the molar mass of the structure shown. Non-standard residues stand in square brackets, D forms with d. Residues, ends and D or L forms follow the SMILES beside them. No end group written: not given here. AEEA = NCCOCCOCC(=O)O
Experiments:
[1] = tested on: E. coli ATCC 25922; assay: Frequency of resistance determination (p0 method); type: cell-based, Escherichia coli; conditions: E. coli ATCC 25922, 40 cultures, 4 × MIC, 24–48 h, colistin as reference, triplicate
Source text: The method was based on the Fluctuation assay (p0 method; Luria and Delbrück) for determination of mutation rate[33],[34], and optimized for selection of mutants in liquid medium. Colistin sulfate (Thermo Scientific, 15575146) served as control in experimentation. Initially, the MIC of colistin and peptides was verified through broth dilution in 96-well plates (as detailed above). In order to account for potential phenotypic heterogeneity among colonies derived from the same frozen stock, multiple colonies of E. coli ATCC 25922 were picked and inoculated in 2 mL MHII broth overnight at 37°C with continuous shaking. The following day, aliquots of colistin and peptide solutions were prepared in MHII broth at working concentrations 20 times the MIC. […] The plates were incubated at 37 °C in a humidified box, and OD was measured at 600 nm using a microplate reader (Victor Nivo, Perkin-Elmer) after 0, 24 and 48 h of incubation. […]
To calculate the viable bacterial counts, the overnight culture was serially diluted 10-fold in MHII, after which 5 µl of the 10^− 3 – 10^− 9 dilutions were spotted onto MHII agar plates and incubated overnight at 37 °C. CFUs were counted the following day to determine CFU/mL of the overnight culture. […] The mutation rate, or frequency of resistance, was calculated using the following formula: […]

[2] = tested on: E. coli ATCC 25922; assay: Time-kill experiments; type: cell-based, Escherichia coli; conditions: E. coli ATCC 25922, at the MBC; detection limit 100 CFU/mL; triplicate
Procedure: (§1) Bacterial strains were plated on cation-adjusted Mueller-Hinton (MH II) agar plates and incubated at 37 °C overnight. The day after single colonies were picked and resuspended in sterile-filtered saline (0.9%). The OD of each bacterial suspension was adjusted to McFarland standard 0.5 using a spectrophotometer (UV-1800, Shimadzu), and the suspension further diluted 1:100 in MH II broth, corresponding to 10^6 colony forming units (CFU) per mL. The inoculum suspension was used for MIC, MBC, time-kill and protease stability assessments as described below. To ensure correct inoculum sizes, 10 µL of the bacterial suspensions were diluted 2000-fold in sterile-filtered saline (0.9%) and 100 µL plated onto MH II agar plates. After overnight incubation at 37 °C, colonies were counted. If found to be outside the acceptable number (20–80 colonies per plate corresponding to ∼10^6 CFU/mL), results from further analyses were discarded.
Four Eppendorf tubes were set up containing 0.5 mL of E. coli inoculum, prepared as described above. To the tubes were added peptides corresponding to final concentrations of ½×MIC, MIC and 2×MIC (see Fig. 3). One tube served as growth control (no added peptide). Then, 50 µL of culture were sampled from the tubes at timepoints 0, 0.25, 0.5, 2, 5 and 24 h. […] The day after, CFU/mL was calculated based on colony counts and dilution factor. […]

[3] = Solubility of peptides; type: physicochemical; conditions: solvent as stated in the value
[4] = tested on: E. coli; assay: Cell morphology by phase contrast microscopy; type: cell-based, Escherichia coli; conditions: 10× MIC, 5 min exposure, preliminary
Procedure: To explore the potential correlation between general membrane destabilization and our FoR data, we conducted a brief preliminary examination of E. coli cell morphology following a pulsed exposure to our top four peptide candidates at 10× MIC. Cells were imaged by using phase contrast microscopy after 5 min of exposure. […] However, additional research using complementary techniques are necessary to conclusively characterize their killing mechanism.

[5] = tested on: P. aeruginosa; assay: Minimum bactericidal concentration (MBC); type: cell-based; conditions: 5 µL from MIC wells plated on MH II agar, 37 °C overnight, no visible colonies; triplicate, highest number reported
[6] = tested on: E. faecalis ATCC 29212; assay: Minimum bactericidal concentration (MBC); type: cell-based; conditions: 5 µL from MIC wells plated on MH II agar, 37 °C overnight, no visible colonies, triplicate, highest number reported
Procedure: (§2) The panel of bacterial reference strains used in this work for assessment of synthetic peptide activity originated from the American Type Culture Collection (ATCC) and was obtained from the Diagnostic section at the Department of Microbiology, Oslo University Hospital. The strains used were as follows: E. coli ATCC 25922, K. pneumoniae ATCC 13883, A. baumannii ATCC 17978, S. aureus ATCC 29213, and E. faecalis ATCC 29212.
as §1
(§3) In order to assess the minimum bactericidal concentration (MBC) of peptides, 5 µL from each well of the 96-well plate used for MIC analysis was plated onto MH II agar and incubated at 37 °C overnight. […] The experiments were performed in triplicate. Two-fold variations in MIC values were often observed between replicates.

[7] = tested on: K. pneumoniae ATCC 13883; assay: Minimum bactericidal concentration (MBC); type: cell-based; conditions: 5 µL from MIC wells plated on MH II agar, 37 °C overnight, no visible colonies, triplicate, highest number reported
Procedure: as §2, §1, §3

[8] = tested on: S. aureus ATCC 29213; assay: Minimum bactericidal concentration (MBC); type: cell-based; conditions: 5 µL from MIC wells plated on MH II agar, 37 °C overnight, no visible colonies, triplicate, highest number reported
Procedure: as §2, §1, §3

[9] = tested on: A. baumannii ATCC 17978; assay: Minimum bactericidal concentration (MBC); type: cell-based; conditions: 5 µL from MIC wells plated on MH II agar, 37 °C overnight, no visible colonies, triplicate, highest number reported
Procedure: as §2, §1, §3

[10] = tested on: P. aeruginosa; assay: Minimum inhibitory concentration (MIC), broth dilution; type: cell-based; conditions: MH II broth, 5 × 10^5 CFU/mL, 18–24 h, 37 °C, OD600; triplicate, highest number reported; detection limit <0.5 and >128 µM
[11] = tested on: E. coli ATCC 25922; assay: Minimum bactericidal concentration (MBC); type: cell-based, Escherichia coli; conditions: 5 µL from MIC wells plated on MH II agar, 37 °C overnight, no visible colonies, triplicate, highest number reported, detection limit <0.5 and >128 µM
Procedure: as §2, §1, §3

[12] = tested on: E. faecalis ATCC 29212; assay: Minimum inhibitory concentration (MIC), broth dilution; type: cell-based; conditions: for MIC, E. faecalis: E. faecalis ATCC 29212, MH II broth, 5 × 10^5 CFU/mL, 18–24 h, 37 °C, OD600, triplicate, highest number reported, detection limit <0.5 and >128 µM
Procedure: as §2, §1
(§4) The peptides were serially diluted (two-fold) directly in 96-well plates (Greiner, MICROPLATE, 96 WELL, PP, U-BOTTOM, NATURAL, 650261) containing MH II broth, corresponding to concentrations in the range 256–0.5 µM. An equal volume of bacterial suspension was added to each well, resulting in a final inoculum of 5 × 10^5 CFU/mL and final peptide concentrations of 128–0.25 µM. The 96-well plates were incubated for 18–24 h at 37 °C, after which the OD of each well was measured at 600 nm in a plate reader (Victor Nivo, Perkin-Elmer). The minimum inhibitory concentration (MIC) was estimated as the lowest concentration of peptide that produced OD600 measurements similar to the control wells containing no bacteria. The experiments were performed in triplicate. Two-fold variations in MIC values were often observed between replicates.

[13] = tested on: K. pneumoniae ATCC 13883; assay: as above; type: cell-based; conditions: for MIC, K. pneumoniae: K. pneumoniae ATCC 13883, MH II broth, 5 × 10^5 CFU/mL, 18–24 h, 37 °C, OD600, triplicate, highest number reported, detection limit <0.5 and >128 µM
Procedure: as §2, §1, §4

[14] = tested on: S. aureus ATCC 29213; assay: as above; type: cell-based; conditions: for MIC, S. aureus: S. aureus ATCC 29213, MH II broth, 5 × 10^5 CFU/mL, 18–24 h, 37 °C, OD600, triplicate, highest number reported, detection limit <0.5 and >128 µM
Procedure: as §2, §1, §4

[15] = tested on: A. baumannii ATCC 17978; assay: as above; type: cell-based; conditions: MH II broth, 5 × 10^5 CFU/mL, 18–24 h, 37 °C, OD600, triplicate, highest number reported, detection limit <0.5 and >128 µM
Procedure: as §2, §1, §4

[16] = tested on: E. coli ATCC 25922; assay: as above; type: cell-based, Escherichia coli; conditions: for MIC, E. coli: E. coli ATCC 25922, two-fold dilution in MH II broth, 5 × 10^5 CFU/mL, 18–24 h, 37 °C, OD600, triplicate, highest number reported, detection limit <0.5 and >128 µM
Procedure: as §2, §1, §4

Row | Compound | Frequency of resistance (FoR) (in words) [1] | Time after which CFU/ml was below the detection limit [2] [h] | Solubility (in words) [3] | Membrane morphology of cells (in words) [4] | MBC, P. aeruginosa [5] [µM] | MBC, E. faecalis [6] [µM] | MBC, K. pneumoniae [7] [µM] | MBC, S. aureus [8] [µM] | MBC, A. baumannii [9] [µM] | MIC, P. aeruginosa [10] [µM] | MBC, E. coli [11] [µM] | MIC, E. faecalis [12] [µM] | MIC, K. pneumoniae [13] [µM] | MIC, S. aureus [14] [µM] | MIC, A. baumannii [15] [µM] | MIC, E. coli [16] [µM] | Fold lowering of MIC compared to parent 1a-N10, E. faecalis ([12]; D-form versus all-L parent) [fold] | Fold improvement (lowering) of MIC compared to parent 1a-N10, K. pneumoniae ([13]; D-form versus all-L parent) [fold] | Fold lowering of MIC compared to parent 1a-N10, S. aureus ([14]; D-form versus all-L parent) [fold] | Fold improvement (lowering) of MIC compared to parent 1a-N10, E. coli ([16]; D-form versus all-L parent) [fold]
1 | VKKKKKAVLQLILKF-NH2 [1a-N10] | low resistance frequencies | 0.5 | soluble in PBS alone | no explicit membrane defects |  |  |  |  |  |  |  |  |  |  |  |  |  |  |  | 
2 | CC[C@H](C)[C@H](NC(=O)[C@H](CC(C)C)NC(=O)[C@H](CCC(N)=O)NC(=O)[C@H](CC(C)C)NC(=O)[C@@H](NC(=O)[C@H](C)NC(=O)COCCOCCNC(=O)[C@H](CCCCN)NC(=O)[C@H](CCCCN)NC(=O)[C@H](CCCCN)NC(=O)[C@H](CCCCN)NC(=O)[C@H](CCCCN)NC(=O)[C@@H](N)C(C)C)C(C)C)C(=O)N[C@@H](CC(C)C)C(=O)N[C@@H](CCCCN)C(=O)N[C@@H](Cc1ccccc1)C(=O)N[C@@H](CC(C)C)C(N)=O [3c-N10] (H-VKKKKK[AEEA]AVLQLILKFL-NH2) |  |  |  |  | 32 (≈ 65.3 µg/mL) | 16 (≈ 32.7 µg/mL) | 16 (≈ 32.7 µg/mL) | 32 (≈ 65.3 µg/mL) | 16 (≈ 32.7 µg/mL) | 64 (≈ 131 µg/mL) | 16 (≈ 32.7 µg/mL) | 16 (≈ 32.7 µg/mL) | 16 (≈ 32.7 µg/mL) | 32 (≈ 65.3 µg/mL) | 16 (≈ 32.7 µg/mL) | 16 (≈ 32.7 µg/mL) |  |  |  | 
3 | KKKKKKFVLKLILKLL-NH2 [2g-N12] |  |  |  |  | 128 | 128 | 128 | 128 | 128 | 128 | 128 | 64 | 64 | 128 | 128 | 128 |  |  |  | 
4 | VRRRRRAVLQLILRFL-NH2 [3a-N10] |  |  |  |  | 64 | 16 | 32 | 32 | 16 | 64 | 32 | 16 | 32 | 32 | 16 | 32 |  |  |  | 
5 | CC[C@@H](C)[C@@H](NC(=O)[C@@H](CC(C)C)NC(=O)[C@@H](CCC(N)=O)NC(=O)[C@@H](CC(C)C)NC(=O)[C@H](NC(=O)[C@@H](C)NC(=O)[C@@H](CCCCN)NC(=O)[C@@H](CCCCN)NC(=O)[C@@H](CCCCN)NC(=O)[C@@H](CCCCN)NC(=O)[C@@H](CCCCN)NC(=O)[C@H](N)C(C)C)C(C)C)C(=O)N[C@H](CC(C)C)C(=O)N[C@H](CCCCN)C(=O)N[C@H](Cc1ccccc1)C(N)=O [D-1a-N10] (H-[dV][dK][dK][dK][dK][dK][dA][dV][dL][dQ][dL][dI][dL][dK][dF]-NH2; N-terminus assumed) | eliminated mutagenicity |  |  | indications of changes in membrane morphology |  |  |  |  |  |  |  |  |  |  |  |  | 4 | 2 | 8 | 2
6 | KKKKIAVLQLILLFL-NH2 [2b-N12] |  |  |  |  | > 128 | > 128 | > 128 | > 128 | > 128 | > 128 | > 128 | > 128 | > 128 | > 128 | > 128 | > 128 |  |  |  | 

— publication PMC12022103 (Scientific Reports, 2025)
